Results taken from patent US10538535B2, “Antitumoral compounds” (priority 2017, dated 2020).
Like-named read-outs stand apart in the source and are kept apart here.

Tests used:
[1] = MTD (Maximum Tolerated Dose) determination, single iv administration; assay type: in vivo; settings: female, mouse, in vivo; mice; iv/SD
Text: (§1) Female CD-1 or Athymic Nude-Fox1 nu/nu mice (Envigo) were utilized for all experiments. […] Animals were acclimated for five days prior to being individually tattoo-identified. Animal protocols were reviewed and approved according to the regional Institutional Animal Care and Use Committees.
(§2) Mice were randomly allocated into experimental groups and intravenously administered, once for the MTD (Maximum Tolerated Dose) determination or one administration a week during three consecutive weeks, for the MTMD (Maximum Tolerated Multiple Dose) determination study. The animals were administered with white formulation or with compound dissolved in the experimental formulation at different concentrations. The volume administered was always 10 mL/kg. Once administered, animals were monitored for clinical signs of systemic toxicity, changes in body weight and mortality up to 14 days after the administration.

HT29 cells = test: cells; settings: Homo sapiens, HT-29, 72 h; for CC50: read-out: LC50
How it was run: (§3)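 5000 cells/well, 18 h attachment; 72 h compound treatment (1% DMSO final, 10–0.003 μg/mL); fixation in 1% glutaraldehyde, 0.4% SRB stain; NCI algorithm, 4-parameter logistic fit.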

A549 cells = test: cells; settings: Homo sapiens, A549, 72 h; for CC50: read-out: LC50
How it was run: as §3

[2] = MTMD (Maximum Tolerated Multiple Dose) determination, iv weekly x3; assay type: in vivo; settings: mice; iv/Q7dx3
Text: as §1, §2

MDA-MB-231 cells = test: cells; settings: Homo sapiens, MDA-MB-231, 72 h
How it was run: as §3

PSN1 cells = test: cells; settings: Homo sapiens, PSN1, 72 h
How it was run: as §3

[3] = test system: xenografted human tumor cell lines (breast, kidney and ovarian cancer); settings: xenografted human tumor cell lines in mice, such as breast; cited from earlier work
[4] = test system: solid and non-solid tumour cell lines; settings: cited from earlier work

Experimental for DU-145 tumors: Female athymic nu/nu mice (Harlan Laboratories Models, S. L. Barcelona, Spain or Envigo, Spain) were utilized for all experiments. Animal were housed in individually ventilated cages Sealsafe® Plus, Techniplast S.P.A.), up to ten per cage on a 12-hour light-dark cycle at 21-23° C. and 40-60% humidity. Mice were allowed free access to irradiated standard rodent diet (Tecklad 2914C) and sterilized water. Animals were acclimated for at least 5 days prior to tumor implantation with a tumor cell suspension.
Culture cells were passaged every 3 to 5 days upon reaching confluence Each male athymic mice was subcutaneously implanted (on the right flank using a 26 G needle and a 1 cc syringe) at 4-6 weeks of age with 5×10^6 DU-145 cells suspended in 0.05 mL of a solution consisting of 50% Matrigel® Matrix (Corning Incorporated Life Sciences) and 50% medium without serum or antibiotics.
Treatment tolerability was assessed by monitoring body weight evolution, clinical signs of systemic toxicity, as well as evidences of local damage in the injection site.
In xenograft studies with other cell lines: • Tumor volume was calculated using the equation (a·b^2)/2, where a: length (longest diameter) and b: width (shortest diameter) were measured in mm by using digital caliper (Fowler Sylvac, S235PAT).
Treatments producing >20% lethality and/or 20% net body weight loss were considered toxic.
Tables and figures summarize the data obtained from complete experimental groups, i.e. those groups keeping the initial number of animals, n=8-10.

With `COc1c(C)cc2c(c1O)[C@@H]1[C@@H]3[C@@H]4SC[C@]5(N[C@H](CO)Cc6c5[nH]c5ccccc65)C(=O)OC[C@@H](c5c6c(c(C)c(OC(C)=O)c54)OCO6)N3[C@@H](O)[C@H](C2)N1C` [Compound 4-S] the MTD at 14 days [1] was 1 mg/kg, the CC50 (HT29 cells) was greater than 127 nM and the CC50 (A549 cells) was greater than 127 nM. The “Median Tumor Volume” value (DU-145 tumors; Day 0, 4-S 1.00 mg/Kg iv Days 0, 7 and 14) was 126.2 mm^3, the “Median Tumor Volume” value (DU-145 tumors; Day 3, 4-S 1.00 mg/Kg iv Days 0, 7 and 14) was 102.4 mm^3 and the “Median Tumor Volume” value (DU-145 tumors; Day 5, 4-S 1.00 mg/Kg iv Days 0, 7 and 14) was 119.5 mm^3. For the same molecule, the “Median Tumor Volume” value (DU-145 tumors; Day 7, 4-S 1.00 mg/Kg iv Days 0, 7 and 14) was 149.5 mm^3, the “Median Tumor Volume” value (DU-145 tumors; Day 10, 4-S 1.00 mg/Kg iv Days 0, 7 and 14) was 216.8 mm^3 and the “Median Tumor Volume” value (DU-145 tumors; Day 12, 4-S 1.00 mg/Kg iv Days 0, 7 and 14) was 181.4 mm^3. The “Median Tumor Volume” value (DU-145 tumors; Day 14, 4-S 1.00 mg/Kg iv Days 0, 7 and 14) was 237.7 mm^3, the “Median Tumor Volume” value (DU-145 tumors; Day 17, 4-S 1.00 mg/Kg iv Days 0, 7 and 14) was 204.4 mm^3 and the “Median Tumor Volume” value (DU-145 tumors; Day 19, 4-S 1.00 mg/Kg iv Days 0, 7 and 14) was 210.9 mm^3. For the same molecule, the “Median Tumor Volume” value (DU-145 tumors; Day 24, 4-S 1.00 mg/Kg iv Days 0, 7 and 14) was 300.0 mm^3, the “Median Tumor Volume” value (DU-145 tumors; Day 26, 4-S 1.00 mg/Kg iv Days 0, 7 and 14) was 378.4 mm^3 and the “Median Tumor Volume” value (DU-145 tumors; Day 28, 4-S 1.00 mg/Kg iv Days 0, 7 and 14) was 587.0 mm^3. For the same molecule, the “Median Tumor Volume” value (DU-145 tumors; Day 31, 4-S 1.00 mg/Kg iv Days 0, 7 and 14) was 650.3 mm^3 and the MTMD [2] was 1.25 mg/kg.
`COc1ccc2[nH]c3c(c2c1)CCN[C@]31CS[C@@H]2c3c(OC(C)=O)c(C)c4c(c3[C@H](COC1=O)N1[C@@H]2[C@H]2c3c(cc(C)c(OC)c3O)C[C@@H]([C@@H]1O)N2C)OCO4` [PM01183] showed a GI50 (HT29 cells) of 1.91 nM, a CC50 (HT29 cells) greater than 127 nM and an IC (TGI) (HT29 cells; read-out: TGI) of 4.46 nM. The GI50 (A549 cells) was 3.31 nM, the CC50 (A549 cells) was greater than 127 nM and the IC (TGI) (A549 cells; read-out: TGI) was 3.57 nM. The GI50 (MDA-MB-231 cells) was 2.29 nM, the CC50 (MDA-MB-231 cells; read-out: LC50) was 10.2 nM and the IC (TGI) (MDA-MB-231 cells; read-out: TGI) was 3.95 nM. For the same molecule, the GI50 (PSN1 cells) was 3.19 nM, the CC50 (PSN1 cells; read-out: LC50) was 5.73 nM and the IC (TGI) (PSN1 cells; read-out: TGI) was 3.95 nM. For the same molecule, the in vivo activity [3] was “significant in vivo activity” and the in vitro activity [4] was “highly potent in vitro activity”.
